Target: Replicase polyprotein 1ab (Severe acute respiratory syndrome coronavirus 2) (UniProt P0DTD1)
Description: Functional biochemical assay to identify treatments for viral infectious disease that targets SARS-COV-2 nsp3 macrodomain, whereby the mechanism of action displaces an ADP-Ribose modified peptide from the binding site. Utilizing a time-resolved fluorescence method to measure binding by reading the emitted fluorescence intensity in two wavelengths.

Cc1cccc2oc(CCNc3ncnc4[nH]ccc34)nc12
inhibition (Concentration 50.0 uM, Number of replicates 2.0, Standard deviation 6.123 %): -3.26%

c1coc(CNc2ncnc3[nH]cnc23)c1
inhibition (Concentration 50.0 uM, Number of replicates 2.0, Standard deviation 0.16 %): 2.63%

O=C(CCN(Cc1cccc(Cl)c1)C(=O)[C@@H]1CNCC12CC2)N1CCNCC1
inhibition (Concentration 49.75 uM, Number of replicates 2.0, Standard deviation 4.003 %): 4.21% | inhibition (Concentration 99.5 uM, Number of replicates 2.0, Standard deviation 2.443 %): 2.38%

Cc1ccc(-c2n[nH]cc2CNc2cnc3[nH]ncc3c2)o1
inhibition (Concentration 50.0 uM, Number of replicates 2.0, Standard deviation 33.024 %): 7.23%

Cc1[nH]c2ncnc(NC(=O)c3ccncc3Cl)c2c1C
inhibition (Concentration 50.0 uM, Number of replicates 2.0, Standard deviation 1.372 %): 69.6% | inhibition (Concentration 100.0 uM, Number of replicates 2.0, Standard deviation 0.621 %): 85.6%

O=C(c1ccnc(S)c1)N1CCC(c2ccn3ncc(C(=O)N4CCCCC4)c3c2)CC1
inhibition (Concentration 49.75 uM, Number of replicates 2.0, Standard deviation 0.749 %): 20.2% | inhibition (Concentration 99.5 uM, Number of replicates 2.0, Standard deviation 3.677 %): 35.5%

Cc1nn(-c2ccccc2)c(C)c1[C@H]1COCCN1c1ncnc2[nH]ccc12
inhibition (Concentration 49.75 uM, Number of replicates 2.0, Standard deviation 1.442 %): -0.042% | inhibition (Concentration 99.5 uM, Number of replicates 2.0, Standard deviation 1.631 %): -4.22%

CN(C(=O)c1cnn2ccc(C3CCN(C(=O)c4ccccc4)CC3)cc12)c1ccccc1O
inhibition (Concentration 49.75 uM, Number of replicates 2.0, Standard deviation 2.649 %): 10% | inhibition (Concentration 99.5 uM, Number of replicates 2.0, Standard deviation 4.361 %): 15.9%

O=C(CNc1ncnc2[nH]ccc12)N1CCc2ccccc21
inhibition (Concentration 50.0 uM, Number of replicates 2.0, Standard deviation 7.793 %): 1.19%

CN1CCO[C@H](CNC(=O)c2ccc(NC(=O)Nc3ccccc3)cc2)C1
inhibition (Concentration 49.75 uM, Number of replicates 2.0, Standard deviation 5.309 %): -0.616% | inhibition (Concentration 99.5 uM, Number of replicates 2.0, Standard deviation 6.496 %): 3.27%

CC1(C)CN(C(=O)c2ccc(NC(=O)Nc3ccccc3)cc2)C[C@@]1(F)C(=O)O
inhibition (Concentration 49.75 uM, Number of replicates 2.0, Standard deviation 0.273 %): -2.57% | inhibition (Concentration 99.5 uM, Number of replicates 2.0, Standard deviation 1.041 %): -5.19%

O=C(c1cc(O)ncn1)N1CCC(c2ccn3ncc(C(=O)N4CCCCC4)c3c2)CC1
inhibition (Concentration 49.75 uM, Number of replicates 2.0, Standard deviation 0.931 %): 19.1% | inhibition (Concentration 99.5 uM, Number of replicates 2.0, Standard deviation 1.95 %): 30.9%

Cc1n[nH]c(C)c1C(=O)N1CCC(c2ccn3ncc(C(=O)N4CCCCC4)c3c2)CC1
inhibition (Concentration 49.75 uM, Number of replicates 2.0, Standard deviation 0.408 %): 10.8% | inhibition (Concentration 99.5 uM, Number of replicates 2.0, Standard deviation 0.015 %): 23.3%

O=C(Nc1cnc2[nH]ncc2c1)c1ccc(Oc2cccc(Br)c2)nc1
inhibition (Concentration 50.0 uM, Number of replicates 2.0, Standard deviation 1.64 %): -0.183%

Cc1nn(Cc2ccccc2)c(C)c1CNc1ncnc2[nH]ncc12
inhibition (Concentration 50.0 uM, Number of replicates 2.0, Standard deviation 2.858 %): -1.75%

Cn1nc(NC(=O)c2cc3nccn3c(=O)[nH]2)c2nccnc21
inhibition (Concentration 50.0 uM, Number of replicates 2.0, Standard deviation 4.143 %): -1.91%

Cc1cc(C(=O)Nc2[nH]nc3nc(O)ccc23)c2c(C)nn(C)c2n1
inhibition (Concentration 50.0 uM, Number of replicates 2.0, Standard deviation 0.36 %): -6.17% | inhibition (Concentration 100.0 uM, Number of replicates 2.0, Standard deviation 2.675 %): -3.32%

Cc1cncc(NCc2csc(-c3ccccn3)n2)c1
inhibition (Concentration 50.0 uM, Number of replicates 2.0, Standard deviation 0.194 %): -5.02%

CN(C(=O)c1ccc(NC(=O)Nc2ccccc2)cc1)[C@@H]1CN2CCC1CC2
inhibition (Concentration 49.75 uM, Number of replicates 2.0, Standard deviation 0.826 %): -4.01% | inhibition (Concentration 99.5 uM, Number of replicates 2.0, Standard deviation 1.597 %): 2.77%

O=C(Nc1ccccc1)Nc1ccc(C(=O)Nc2ncccc2F)cc1
inhibition (Concentration 49.75 uM, Number of replicates 2.0, Standard deviation 1.252 %): 4.59% | inhibition (Concentration 99.5 uM, Number of replicates 2.0, Standard deviation 5.725 %): 10.2%

CC(C)c1nc([C@@H](C)Nc2ncnc3nc[nH]c23)cs1
inhibition (Concentration 49.75 uM, Number of replicates 2.0, Standard deviation 2.607 %): 2.65% | inhibition (Concentration 99.5 uM, Number of replicates 2.0, Standard deviation 0.232 %): 3.07%

Cc1nc2cnccn2c1NC(=O)c1cc(-c2ccco2)[nH]n1
inhibition (Concentration 50.0 uM, Number of replicates 2.0, Standard deviation 2.08 %): -3.88%

Cc1nc(NC(=O)[C@@H]2CCCOC2)c2ccnc-2[nH]1
inhibition (Concentration 50.0 uM, Number of replicates 2.0, Standard deviation 1.269 %): -3.2%

Cn1nc(C(=O)O)cc1C(=O)N1CCC(c2ccn3ncc(C(=O)N4CCCCC4)c3c2)CC1
inhibition (Concentration 49.75 uM, Number of replicates 2.0, Standard deviation 5.569 %): 34.2% | inhibition (Concentration 99.5 uM, Number of replicates 2.0, Standard deviation 2.729 %): 52.7%

CC(C)[C@@H](CO)[C@@H](Nc1ncnc2[nH]ccc12)C(C)C
inhibition (Concentration 49.75 uM, Number of replicates 2.0, Standard deviation 2.34 %): 6.65% | inhibition (Concentration 99.5 uM, Number of replicates 2.0, Standard deviation 2.712 %): 13.1%

Clc1cnc(OCCNc2ncnc3[nH]ccc23)c(Cl)c1
inhibition (Concentration 50.0 uM, Number of replicates 2.0, Standard deviation 2.048 %): -4.3% | inhibition (Concentration 100.0 uM, Number of replicates 2.0, Standard deviation 3.465 %): -7.69%

O=C(Nc1nc2ccc(F)cc2[nH]1)c1cc(N2CCNC2=O)ccc1F
inhibition (Concentration 50.0 uM, Number of replicates 2.0, Standard deviation 3.412 %): -7.71%

O=C(CCN(Cc1cccc(Cl)c1)C(=O)c1cnon1)N1CCNCC1
inhibition (Concentration 49.75 uM, Number of replicates 2.0, Standard deviation 0.478 %): -2.44% | inhibition (Concentration 99.5 uM, Number of replicates 2.0, Standard deviation 0.154 %): -1.08%

O=C(O)c1ccc2c(c1)ncn2-c1ccc(CNC(=O)c2ncnc3[nH]ccc23)cc1
inhibition (Concentration 99.5 uM, Number of replicates 2.0, Standard deviation 0.835 %): -4.65%

O=C(OCc1ccc(Cl)nc1)c1ncnc2[nH]ccc12
inhibition (Concentration 50.0 uM, Number of replicates 2.0, Standard deviation 1.988 %): 6.08%

COc1cccc2cc(CNc3cnc4[nH]ncc4c3)oc12
inhibition (Concentration 50.0 uM, Number of replicates 2.0, Standard deviation 5.215 %): -4.29%

FC(F)(F)c1nc(NC[C@H]2CCCO2)c2nc[nH]c2n1
inhibition (Concentration 50.0 uM, Number of replicates 2.0, Standard deviation 2.867 %): 2.5%

O=C(CCN(Cc1cccc(Cl)c1)C(=O)C1CCC(O)CC1)N1CCNCC1 (configuration not stated)
inhibition (Concentration 49.75 uM, Number of replicates 2.0, Standard deviation 4.563 %): -4.32% | inhibition (Concentration 99.5 uM, Number of replicates 2.0, Standard deviation 1.877 %): 0.465%

O=C(Nc1ccccc1)Nc1ccc(C(=O)N2CCn3nccc3C2)cc1
inhibition (Concentration 49.75 uM, Number of replicates 2.0, Standard deviation 2.554 %): -3.11% | inhibition (Concentration 99.5 uM, Number of replicates 2.0, Standard deviation 2.469 %): 2.3%

Nc1ncc(C(=O)N(CCC(=O)N2CCNCC2)Cc2cccc(Cl)c2)cn1
inhibition (Concentration 49.75 uM, Number of replicates 2.0, Standard deviation 3.901 %): -2.76% | inhibition (Concentration 99.5 uM, Number of replicates 2.0, Standard deviation 0.039 %): -1.73%

O=C(CCN(Cc1cccc(Cl)c1)C(=O)[C@H]1C[C@H](O)C1)N1CCNCC1
inhibition (Concentration 49.75 uM, Number of replicates 2.0, Standard deviation 2.648 %): -2.13% | inhibition (Concentration 99.5 uM, Number of replicates 2.0, Standard deviation 5.781 %): -3.77%
